Experimental data from patent publication US11110080B2, “Small molecule inhibitors of bacterial efflux pumps and methods of using same” (The Regents of the University of Colorado, a body Corporate, priority 2017, dated 2021).

Assays:
S.Tm = assay: Swimming assay in soft agar (proton motive force); type: cell-based, Salmonella enterica serovar Typhimurium; settings: 50 mM, 10 μl on disk (500×, 125×, ~62.5× the MIC for EPM30, EPM35, EPM43)
[1] = test system: S.Tm infection of C57BL/6 mice; assay: Mouse infection with S.Tm, tetracycline and EPM35 treatment
Experimental: Finally, whether EPM35 increased sensitivity of 510801 and wild-type S.Tm to tetracycline in vivo was tested. 7-week-old C57BL/6 mice were intraperitoneally infected with 1×10^4 bacteria. At 30 minutes and 24 hours post-infection, 25 mg/kg tetracycline and 50 mg/kg EPM35 was injected. […] Thus, the experiment was ended at 30 hours post-infection; the spleen and liver were harvested and plated to determine bacterial CFU.
These studies were carried out in strict accordance with the recommendations in the Guide for the Care and Use of Laboratory Animals of the National Institutes of Health, and all protocols were approved by the University of Colorado Institutional Committees for Biosafety and for Animal Care and Use. Bacteria were grown overnight in LB, then diluted in PBS. Seven week old C57/B16 female mice were intraperitoneally injected with 1×10^4S.Tm in 100 μL. Thirty minutes later, mice received two intraperitoneal injections: 25 mg/kg tetracycline in 150 μL PBS or PBS alone, and 50 mg/kg EPM35 in 100 μL DMSO or DMSO alone. Drug injections were repeated at 24 hours post-infection. At 30 hours post-infection, mice were humanely euthanized using carbon dioxide asphyxiation followed by cervical dislocation. Spleens and livers were harvested, homogenized, diluted in PBS, and plated to enumerate S.Tm CFUs.

K. pneumoniae = assay: Nile Red export in MDR clinical isolate; type: cell-based, Klebsiella pneumoniae; settings: after glucose addition
From the text: Six pathogens that cause the bulk of MDR nosocomial infections have been dubbed the ESKAPE pathogens: Enterococcus faecium, Staphylococcus aureus, Klebsiella pneumoniae, Acinetobacter baumannii, Pseudomonas aeruginosa, and Enterobacter species (56).
Referring to FIGS. 22A-22D: Defined strains obtained from BEI resources were examined for Nile Red retention after glucose addition in the presence of the indicated compound. *p<0.05; **p<0.01; ***p<0.001; ****p<0.0001 as determined by comparison to DMSO+glucose with a one-way ANOVA and Dunnett's multiple comparison post-test.
Nile Red assays were adapted from an established protocol. Briefly, overnight Salmonella cultures were grown in Mueller-Hinton cation-adjusted broth (Sigma), washed, and resuspended at an OD600 of 2.0. Cells were incubated in 10 μM Nile Red for 3 hours at 37° C. with aeration, then moved to room temperature for 1 hour. After pelleting at 2000× g, dye-loaded cells were aliquoted and combined with compound at the indicated concentrations. Two hundred microliters was loaded into 96-well black walled plates (Greiner) and read using a Varioskan Flash Multimode Reader with 540 nm excitation and 625 nm emission filters. We observed that during loading into plates (˜20 minutes), bacteria were able to efflux Nile Red even in the absence of glucose (FIG. 8A). […]

wild-type S.Tm = assay: Growth in broth with antimicrobial peptides (polymyxin B, LL-37) and EPMs; type: cell-based, Salmonella enterica serovar Typhimurium; settings: polymyxin B 5 μg/ml (⅛ MIC) + 25 μM EPM
From the text: Next, it was investigated how EPMs might lead to bacterial clearance within host cells. […] Instead, EPMs may synergize with a host antimicrobial(s) that is effluxed by EPs. Two S.Tm EPs are necessary for infection of macrophages and mice (FIG. 10). The first EP, MacAB, is important for defense against ROS. The second S.Tm EP, AcrAB, is a homolog of MtrCDE, an EP in Neisseria gonorrhoeae which exports host antimicrobial peptides (AMPs). AcrAB thus likely exports AMPs as well as a variety of other substrates including antibiotics, dyes, and detergents. To test whether the EPMs synergize with macrophage defenses, wild-type bacteria was exposed in broth to ROS or AMPs in the presence of EPMs. […] Next, the two AMPs were tested: polymyxin B is a model peptide produced by bacteria; LL-37 is a human cathelicidin produced by macrophages.
Overnight Salmonella cultures were washed 3 times in PBS and diluted to an OD of 0.01 in Mueller Hinton Broth in 96-well flat bottom plates. Compound was added using a pin tool (CyBio) or manually, yielding a final concentration of no more than 1% DMSO. Plates were grown at 37° C. shaking and OD600 was monitored using a BioTek Eon incubator shaker microplate absorbance reader. For experiments in defined media, bacteria were grown in M9 minimal media supplemented with 100 mM Tris pH 7.4, 0.35% glycerol, 0.002% histidine, 10 mM MgCl2, and 0.1% casamino acids. […]

[2] = Log D, solubility and predicted bioavailability; type: physicochemical; settings: aqueous
HepG2 human liver cells = assay: LDH cytotoxicity assay; type: cell-based; settings: 16 hours
Experimental: Cytoxocity was determined using the Pierce Lactate Dehydrogenase (LDH) Cytoxicity Assay. HepG2 liver cells were plated at 5×10^4 in 96 well tissue culture plates and allowed to settle overnight. Cells were treated with a 2-fold dilutions of each compound for 16 hours. Fifty microliters of conditioned media was mixed with the LDH assay reagent, incubated for 30 minutes, and absorbance was read at 490 and 680 nm. Curve fitting to determine CC50s was performed using GraphPad Prism; the CC50 is defined as 50% of the maximum LDH release as determined by lysed macrophages. There was no spontaneous LDH release or LDH present in the media.

SMILES | halo in swimming assay (S.Tm) | signs in treated mice ([1]; 50 mg/kg intraperitoneal at 30 minutes and 24 hours post-infection) | bacterial CFU in spleen and liver, co-treatment with tetracycline ([1]; S10801-infected mice, 25 mg/kg tetracycline + 50 mg/kg EPM35) | enhanced decrease of CFU on co-treatment with tetracycline ([1]; mice infected with wild-type bacteria, 25 mg/kg tetracycline + 50 mg/kg EPM35) | Nile Red export (K. pneumoniae) | growth on co-treatment with polymyxin B (wild-type S.Tm) | solubility [2] | toxicity in HepG2 LDH assays (HepG2 human liver cells)
OC(COc1ccc(Cl)c(Cl)c1)CN1CCC(Nc2nccc(C(F)(F)F)n2)CC1 (centres unmarked) [EPM35] | formed a small halo | Distress was observed | appeared to further reduce bacterial CFU | not observed | significantly reduced Nile Red export | completely inhibited growth |  | 
Cc1ccc(Sc2cccc3nc(N)nc(N)c23)cc1 [EPM43] | formed no halo |  |  |  | significantly reduced Nile Red export | completely inhibited growth | poor aqueous solubility | less toxic to HepG2 cells than the other EPMs
